Source: PubChem BioAssay AID1259407 (Chemical Carcinogenesis Research Information System (CCRIS), 2018)
Calls of active or inactive are those of the source. How the calls were made is not given here.

System: CCRIS mutagenicity, Ames/micronucleus/aberration tests
Experiment: CCRIS mutagenicity studies
Conditions: Test System: AMES SALMONELLA TYPHIMURIUM

**Q.** `C1O[C@@H]1[C@@H]1CO1` was tested. Which mutagenic call (Strain/Indicator: TA98, Metabolic Activation: HAMSTER, LIVER, S-9, AROCLOR 1254, Method: PREINCUBATION) did it give?
**A.** inactive; negative

**Q.** What about the mutagenic call (Strain/Indicator: TA98, Metabolic Activation: HAMSTER, LIVER, S-9, AROCLOR 1254, Method: STANDARD PLATE) of the same compound?
**A.** inactive; negative

**Q.** What about the mutagenic call (Strain/Indicator: TA98, Metabolic Activation: HAMSTER, LIVER, S-9, Method: PREINCUBATION) of the same compound?
**A.** inactive; negative

**Q.** What about the mutagenic call (Strain/Indicator: TA98, Metabolic Activation: HAMSTER, LIVER, S-9, Method: STANDARD PLATE) of the same compound?
**A.** inactive; negative

**Q.** And the mutagenic call (Strain/Indicator: TA98, Metabolic Activation: MOUSE, LIVER, S-9, AROCLOR 1254, Method: PREINCUBATION)?
**A.** inactive; negative

**Q.** What about the mutagenic call (Strain/Indicator: TA98, Metabolic Activation: MOUSE, LIVER, S-9, AROCLOR 1254, Method: STANDARD PLATE) of the same compound?
**A.** inactive; negative

**Q.** What about the mutagenic call (Strain/Indicator: TA98, Metabolic Activation: MOUSE, LIVER, S-9, Method: PREINCUBATION) of the same compound?
**A.** inactive; negative

**Q.** And the mutagenic call (Strain/Indicator: TA98, Metabolic Activation: MOUSE, LIVER, S-9, Method: STANDARD PLATE)?
**A.** inactive; negative

**Q.** And the mutagenic call (Strain/Indicator: TA98, Metabolic Activation: NONE, Method: PREINCUBATION)?
**A.** inactive; negative

**Q.** And the mutagenic call (Strain/Indicator: TA98, Metabolic Activation: NONE, Method: STANDARD PLATE)?
**A.** inactive; negative

**Q.** And the mutagenic call (Strain/Indicator: TA98, Metabolic Activation: RAT, LIVER, S-9, AROCLOR 1254, Method: PREINCUBATION)?
**A.** inactive; negative

**Q.** What about the mutagenic call (Strain/Indicator: TA98, Metabolic Activation: RAT, LIVER, S-9, Method: PREINCUBATION) of the same compound?
**A.** inactive; negative

**Q.** What about the mutagenic call (Strain/Indicator: TA98, Metabolic Activation: RAT, LIVER, S-9, Method: STANDARD PLATE) of the same compound?
**A.** inactive; negative

**Q.** What about the mutagenic call (Strain/Indicator: TA100, Metabolic Activation: HAMSTER, LIVER, S-9, AROCLOR 1254, Method: PREINCUBATION) of the same compound?
**A.** inactive; negative

**Q.** And the mutagenic call (Strain/Indicator: TA100, Metabolic Activation: HAMSTER, LIVER, S-9, AROCLOR 1254, Method: STANDARD PLATE)?
**A.** active; positive

**Q.** What about the mutagenic call (Strain/Indicator: TA100, Metabolic Activation: HAMSTER, LIVER, S-9, Method: PREINCUBATION) of the same compound?
**A.** inactive; negative

**Q.** And the mutagenic call (Strain/Indicator: TA100, Metabolic Activation: HAMSTER, LIVER, S-9, Method: STANDARD PLATE)?
**A.** active; positive

**Q.** What about the mutagenic call (Strain/Indicator: TA100, Metabolic Activation: MOUSE, LIVER, S-9, AROCLOR 1254, Method: PREINCUBATION) of the same compound?
**A.** inactive; negative

**Q.** And the mutagenic call (Strain/Indicator: TA100, Metabolic Activation: MOUSE, LIVER, S-9, AROCLOR 1254, Method: STANDARD PLATE)?
**A.** active; positive

**Q.** And the mutagenic call (Strain/Indicator: TA100, Metabolic Activation: MOUSE, LIVER, S-9, Method: PREINCUBATION)?
**A.** inactive; negative

**Q.** What about the mutagenic call (Strain/Indicator: TA100, Metabolic Activation: NONE, Method: PREINCUBATION) of the same compound?
**A.** inactive; negative

**Q.** What about the mutagenic call (Strain/Indicator: TA100, Metabolic Activation: NONE, Method: STANDARD PLATE) of the same compound?
**A.** active; positive

**Q.** And the mutagenic call (Strain/Indicator: TA100, Metabolic Activation: RAT, LIVER, S-9, AROCLOR 1254, Method: PREINCUBATION)?
**A.** inactive; negative

**Q.** And the mutagenic call (Strain/Indicator: TA100, Metabolic Activation: RAT, LIVER, S-9, Method: PREINCUBATION)?
**A.** inactive; negative

**Q.** And the mutagenic call (Strain/Indicator: TA100, Metabolic Activation: RAT, LIVER, S-9, Method: STANDARD PLATE)?
**A.** active; positive

**Q.** And the mutagenic call (Strain/Indicator: TA1535, Metabolic Activation: HAMSTER, LIVER, S-9, AROCLOR 1254, Method: PREINCUBATION)?
**A.** active; positive

**Q.** And the mutagenic call (Strain/Indicator: TA1535, Metabolic Activation: HAMSTER, LIVER, S-9, AROCLOR 1254, Method: STANDARD PLATE)?
**A.** active; positive

**Q.** And the mutagenic call (Strain/Indicator: TA1535, Metabolic Activation: HAMSTER, LIVER, S-9, Method: PREINCUBATION)?
**A.** active; positive

**Q.** What about the mutagenic call (Strain/Indicator: TA1535, Metabolic Activation: HAMSTER, LIVER, S-9, Method: STANDARD PLATE) of the same compound?
**A.** active; positive

**Q.** What about the mutagenic call (Strain/Indicator: TA1535, Metabolic Activation: MOUSE, LIVER, S-9, AROCLOR 1254, Method: PREINCUBATION) of the same compound?
**A.** active; positive

**Q.** And the mutagenic call (Strain/Indicator: TA1535, Metabolic Activation: MOUSE, LIVER, S-9, AROCLOR 1254, Method: STANDARD PLATE)?
**A.** active; positive

**Q.** What about the mutagenic call (Strain/Indicator: TA1535, Metabolic Activation: MOUSE, LIVER, S-9, Method: PREINCUBATION) of the same compound?
**A.** active; positive

**Q.** What about the mutagenic call (Strain/Indicator: TA1535, Metabolic Activation: MOUSE, LIVER, S-9, Method: STANDARD PLATE) of the same compound?
**A.** active; positive

**Q.** What about the mutagenic call (Strain/Indicator: TA1535, Metabolic Activation: NONE, Method: PREINCUBATION) of the same compound?
**A.** active; positive

**Q.** And the mutagenic call (Strain/Indicator: TA1535, Metabolic Activation: NONE, Method: STANDARD PLATE)?
**A.** active; positive

**Q.** And the mutagenic call (Strain/Indicator: TA1535, Metabolic Activation: RAT, LIVER, S-9, AROCLOR 1254, Method: PREINCUBATION)?
**A.** active; positive
